According to patent US9150528B2, “Compound having detrusor muscle-contracting activity and urethral sphincter muscle-relaxing activity” (ONO PHARMACEUTICAL CO., LTD., priority 2009, dated 2015):

How the values were obtained:
[1] = system: underactive bladder models; assay: Residual urinary volumes and bladder capacities in underactive bladder models (cystometry); type: in vivo, rat; settings: 0.01 mg/kg, oral, underactive bladder model rats
Experimental: The underactive bladder models were constructed in accordance with the following procedure. Female Wistar rats (8 to 9 weeks age) were anesthetized by intraperitoneal administration of Somnopentyl (40 mg/kg), followed by dorsal shaving, and fixed in abdominal positions. Each of the dorsal areas was disinfected with chlorhexidine gluconate (5% hibitane liquid). The waist area was median-incised to expose the spinal column. After excision of the fifth lumbar spinous process, a silicone rubber was inserted into the sixth lumbar direction from a hole bored by a mini drill. For the purpose of avoiding infections, after completion of the surgical operation, benzylpenicillin potassium (25000 U/0.25 mL/body) was added dropwise to the incised area. The muscle and skin of the incised area were sutured with silk threads, and iodine tincture was applied to the sutured area. After the operation, maintenance of voiding was carried out by manual compressions three times daily. For the purpose of avoiding infections, potassium penicillin G (1.25 units/body) was administered subcutaneously. More than 5 days prior to cystometric evaluation, a catheter for cystometrogram was indwelled in the bladder. Anesthesia with sodium pentobarbital (40 mg/kg by intraperitoneal administration) and incision along the midline of the abdomen were carried out, followed by incision of the apex of the bladder. A catheter for cystometrogram filled with physiological saline was inserted into the bladder from a hole of the apical area, and fixed by ligation using silk suture threads. […]
The rats were anesthetized with ether and housed in a Bollmann cage 2 weeks after the construction of the models. To the front end of each of the bladder catheters, a pressure transducer via a three-way cock was connected, and the intravesical pressure was recorded using a strain pressure amplifier•recorder. […]
[…] After 1 hr, physiological saline was perfused into the bladder at a flow rate of 2 mL/h and voiding parameters (bladder capacity and residual urinary volume) were measured. […] Voiding parameters were calculated for each cystometry. […]

[2] = system: spontaneously hypertensive rats; assay: Blood pressure and heart rate measurement in hypertensive rats; type: in vivo, rat; settings: continuous intravenous administration for 30 min
Experimental: The blood pressures and heart rates of male spontaneously hypertensive rats were measured. On the day of measurement, indwelling of catheters for blood pressure•heart rate measurement and subject substance administration was carried out under anesthesia with ether. The back of the neck of each rat was incised, a feeding catheter (Atom Medical Corporation) filled with heparinized physiological saline was introduced from the back of the neck; the catheter was inserted into the common carotid artery and internal jugular vein; and the surgical incision was closed. The measurements were conducted in a Bollmann cage under the conscious state and evaluations were carried out after confirming that the individual parameters were stabilized. After confirming the stabilization of blood pressure and heart rate, the test compound was continuously administered intravenously at a flow rate of 5 mL/kg/h for 30 min.
The catheter drawn from the back of the neck was connected to a pressure transducer (DX-200, NIHON KOHDEN CORP.), and the blood pressures and heart rates were measured using a blood pressure amplifier (Gould instrument). The blood pressures and heart rates were recorded on recording paper using a recorder (LINEARCORDER WR3320, GRAPHTEC). The blood pressures and heart rates were converted into values on the recording paper before administration and 2.5, 5, 10, 15, 30, 45 and 60 min after administration. For each individual, rates of increase and decrease in the parameters were evaluated relative to the value before administration (value at 0 min).

[3] = system: male rats; assay: Digestive symptoms after repeated oral administration; type: in vivo, rat; settings: 0.1 mg/kg oral, repeated for 4 days
Experimental: Using male rats, aged 6 weeks, general states of the rats were observed after repeating oral administration of the test compound at a dose of 0.1 mg/kg for 4 days. To a control, injectable water which is a medium was administered.

[4] = Parallel artificial membrane permeability assay (PAMPA); type: in vitro ADME; settings: sum of pH 5.0, 6.2 and 7.4, 25° C., read-out: membrane permeability coefficients (PAMPA(SUM))
Experimental: The permeability of the drugs through artificial membranes was measured by parallel artificial membrane permeability assay (PAMPA) under the following conditions. For the measurements, a PAMPA system (pION) was used. The membrane permeability was evaluated by measuring membrane permeability coefficients at three pH values and summing the values (PAMPA(SUM)(cm/sec)).
Lipid membrane: GIT-0 (pION)
Incubation temperature: 25° C.
Donor: 5% DMSO-containing buffer
Compound concentration: 50 μmol/L

[5] = Systemic clearance after intravenous administration; type: in vivo; settings: plasma, cynomolgus monkey, 0.001 mg/mL/kg
Experimental: Equimolar sodium hydroxide and injectable distilled water were added to each of the test compounds to prepare a 1 mg/mL aqueous solution. The aqueous solution was diluted with physiological saline until the concentration reached 0.001 mg/mL and was rapidly administered at a dose of 0.001 mg/mL/kg to cynomolgus monkey through the cephalic vein. Via heparinized syringes, 2 min, 5 min, 15 min, 30 min, 1 hr, 2 hr, 4 hr, 6 hr, 8 hr and 24 hr after administration, blood was drawn from the cephalic vein (non-administered sites). After centrifugation, blood plasma was sampled and stored at −80° C. before pretreatment. The blood plasma was pretreated by mixing with acetonitrile and centrifuging to remove proteins followed by measurement by LC/MS/MS. Changes of concentration in blood plasma was analyzed using WinNonlin4.0.1 to evaluate the systemic clearance of the test compound.

[6] = system: urinary excretion dysfunction models; assay: Urinary excretion dysfunction models, maximal urinary flow rate; type: in vivo; settings: 60 ng/kg/h continuous intravenous, cynomolgus monkey urinary excretion dysfunction model
Description: Urinary excretion dysfunction models were constructed in accordance with the following procedure. After anesthesia of cynomolgus monkeys, the region from the suprapubic area to the abdominal area was shaved, followed by fixing in a dorsal position. The shaved region was disinfected and the four legs were fixed. Using an electrosurgical knife, the skin region from the suprapubic area to the umbilical area and the peritoneal membrane were sequentially incised, followed by damage to the pelvic nerve and removal of the uterus. After the surgical operation, viccillin-containing physiological saline was added dropwise to the incised area. The peritoneal membrane and skin of the incised area were sutured with silk threads and disinfected. Viccillin was administered for 7 consecutive days after surgery. Meloxicam was administered once daily for 7 consecutive days to manage pain in the perioperative period.
The cynomolgus monkeys were seated on monkey chairs, followed by retention of the hands and legs with strings. Injectable water was administered orally, and physiological saline and the test compound (60 ng/kg/h) were continuously administered intravenously to allow urination freely. The maximal urinary flow rate was measured using a urine weighing sensor.

- bladder capacity ([1]; versus normal group): no effect
- digestive symptoms such as soft feces [3]: No digestive symptoms
- Papp at 4 hr, 50 μmol/L [4]: 59.3 ×10⁻⁶ cm/s
- clearance [5]: 3.6 mL/min/kg
SMILES: C[C@@](O)(C/C=C/[C@H]1CCC(=O)[C@@H]1CCSc1nc(C(=O)O)cs1)CCC(F)=C(F)F [Compound 17, 2-[(2-{(1R,5R)-2-oxo-5-[(1E,4S)-7,8,8-trifluoro-4-hydroxy-4-methyl-1,7-octadien-1-yl]cyclopentyl}ethyl)thio]-1,3-thiazole-4-carboxylic acid]
- residual urinary volume ([1]; versus vehicle group): significant reduction
- effect on the blood pressure [2]: no effect
- improvement in maximal urinary flow rate over the vehicle group [6]: 61%
